From patent US6022983A, “Pyronin antibacterials, process and novel intermediates thereto” (Scriptgen Pharmaceuticals, Inc., priority 1998, dated 2000)
Converted amounts (≈) assume the structure as drawn. Read-outs that look alike come from different tables or passages of the source.

Legend:
E. coli RNA polymerase = E. coli RNA polymerase (Escherichia coli, UniProt P0A8T7+P0A8V2); test: In vitro transcription assay, E. coli RNA polymerase; type: biochemical; conditions: for IC50: Table II, read-out: In vitro transcription (E.coli RNAP) IC50 (converted); for relative potency in in vitro transcription assay (FIG. 20a,b): comparison in words
Description: In vitro transcription reactions. [α^32 P] UTP-incorporated RNA was synthesized in 50 μl reaction volumes containing transcription buffer (50 mM Tris-HCl, pH 8.0, 200 mM KCl, 10 mM MgCl2, 10 mM DTT and 1.5 μM BSA), 1 μg of DNA template, 4 μM UTP containing 5 μCi of [α^32 P] UTP, 400 μM each of ATP, GTP, and CTP. After incubation for 60 minutes at 25° C., the reaction is terminated with 100 μl 10% TCA, which also precipitates the newly transcribed RNA.
Biological Evaluation of (±)-Myxopyronin A & B. The biological activities of the myxypyronins were evaluated with an in vitro transcription assay using E. coli RNA polymerase (FIG. 20a,b). […] As a validation of the in vitro transcription assay, a known transcription inhibitor, rifampicin, was included in the assay.

S. aureus = test: Broth microdilution MIC, S. aureus; type: cell-based; conditions: for MIC: Staphylococcus aureus, Table II
Description: (§1) Different dilutions are performed for natural product extracts.

E. coli = test: Broth microdilution MIC, E. coli; type: cell-based; conditions: Escherichia coli; Table II
Description: as §1

[1] = tested on: E. coli* (mutant strain that has permeabilized cell wall); test: Broth microdilution MIC, E. coli* mutant with permeabilized cell wall; type: cell-based; conditions: Escherichia coli, read-out: MIC E. coli*
Description: as §1

S. aureus* = test: Broth microdilution MIC, S. aureus* mutant strain; type: cell-based; conditions: Staphylococcus aureus, read-out: MIC S. aureus*
Description: as §1

[2] = tested on: rifampicin resistant strains; test: microbe, parasite or virus in culture; conditions: Staphylococcus aureus
Description: (§2) Microdilution Minimal Inhibitory Concentration (MIC) and Minimum Bactericidal Concentration (MBC) Assays
(§3) The MIC is reported as a range between the concentration at which no growth is observed and the concentration of the dilution which immediately followed. Selected inhibitors from the RNA polymerase screen described above were tested for their ability to inhibit bacterial growth in a broth microdilution assay as follows. […] Dilution of antimicrobial agents is performed in a sterile, covered 96-well microliter plate with flat bottom wells (Costar #9017), and each well contains 100 μL of both +/- antimicrobial agent. The final concentrations of the small molecule antimicrobial agents are 100, 50, 25, 12.5, 6.25, 3.12, 1.56, 0.78, 0.39, 0.20, 0.10, and 0.05 μg/mL, respectively. Different dilutions are performed for natural product extracts. They are first diluted 100-fold with Mueller-Hinton broth. The final dilutions of the natural product extracts are 200, 400, 800, 1600, 3200, 6400, 12800, 25600, 51200, 1×105, 2×105, and 4×105 -fold. A 1 % DMSO (no-drug) row is prepared in Mueller-Hinton broth as a control for 100% growth on each plate. A Mueller-Hinton broth only with no bacteria growth is also included as a negative control for each plate. Ampicillin and rifampin are used as positive controls against all bacterial strains in every experiment.
(§4) The overnight culture of a single colony is diluted in sterile Mueller-Hinton broth so that, after inoculation, each well contains approximately 5×10^5 CFU/mL. Within 15 minutes of preparation, […] of the adjusted inoculum suspension is added to the microliter plate. Each well is diluted with an equal volume of the antimicrobial agent/control substance diluted with sterile Mueller-Hinton broth. The inoculated microliter plate is incubated at 35° C. for 16-20 hours. The turbidity of each well is determined by measuring the absorbance at 595 nm on the BioRad Model 3550-UV microplate reader. The rows containing broth only (no cells) serve as a control, and the rows containing the titration of 1% DMSO serve as a control for 100% growth. The average of the broth only controls is subtracted from the average of each duplicate. This value is subsequently normalized to the average of the DMSO controls.

[3] = tested on: rifampicin susceptible strains; test: microbe, parasite or virus in culture; conditions: Staphylococcus aureus
Description: as §2, §3, §4

E. coli RNA polymerase, sequence (P0A8V2 whole entry): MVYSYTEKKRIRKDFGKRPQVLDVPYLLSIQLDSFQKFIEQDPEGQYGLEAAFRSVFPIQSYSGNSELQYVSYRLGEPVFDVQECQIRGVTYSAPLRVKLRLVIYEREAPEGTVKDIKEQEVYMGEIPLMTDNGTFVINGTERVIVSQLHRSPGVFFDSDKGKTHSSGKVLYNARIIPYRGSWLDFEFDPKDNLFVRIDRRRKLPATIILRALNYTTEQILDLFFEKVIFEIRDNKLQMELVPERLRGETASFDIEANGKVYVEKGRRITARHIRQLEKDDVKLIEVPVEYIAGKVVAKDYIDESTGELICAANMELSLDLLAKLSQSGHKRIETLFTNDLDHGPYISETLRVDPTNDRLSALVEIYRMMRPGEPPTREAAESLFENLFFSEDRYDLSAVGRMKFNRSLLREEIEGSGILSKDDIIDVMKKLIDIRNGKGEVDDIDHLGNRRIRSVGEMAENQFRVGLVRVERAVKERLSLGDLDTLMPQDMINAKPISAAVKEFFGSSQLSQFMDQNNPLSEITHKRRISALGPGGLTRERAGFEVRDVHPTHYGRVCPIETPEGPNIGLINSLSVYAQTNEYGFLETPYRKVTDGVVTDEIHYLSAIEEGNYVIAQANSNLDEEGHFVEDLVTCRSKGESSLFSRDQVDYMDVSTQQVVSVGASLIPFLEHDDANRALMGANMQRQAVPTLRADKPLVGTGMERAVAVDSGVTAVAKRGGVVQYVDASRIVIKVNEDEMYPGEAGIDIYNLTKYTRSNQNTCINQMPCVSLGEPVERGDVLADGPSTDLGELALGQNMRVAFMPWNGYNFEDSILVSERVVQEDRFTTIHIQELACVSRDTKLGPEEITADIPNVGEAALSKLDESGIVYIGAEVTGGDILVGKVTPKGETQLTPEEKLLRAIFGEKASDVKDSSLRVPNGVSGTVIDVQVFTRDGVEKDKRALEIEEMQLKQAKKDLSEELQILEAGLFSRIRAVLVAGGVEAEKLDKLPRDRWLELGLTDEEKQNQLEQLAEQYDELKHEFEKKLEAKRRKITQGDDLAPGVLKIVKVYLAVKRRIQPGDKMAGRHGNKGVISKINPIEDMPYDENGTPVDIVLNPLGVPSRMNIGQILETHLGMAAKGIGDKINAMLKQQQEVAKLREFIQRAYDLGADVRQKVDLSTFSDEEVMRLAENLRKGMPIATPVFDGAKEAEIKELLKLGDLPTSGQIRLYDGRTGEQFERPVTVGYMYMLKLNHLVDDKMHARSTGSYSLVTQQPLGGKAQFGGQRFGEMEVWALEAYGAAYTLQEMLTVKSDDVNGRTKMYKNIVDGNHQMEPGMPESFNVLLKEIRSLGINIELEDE
E. coli RNA polymerase, sequence (P0A8T7 whole entry): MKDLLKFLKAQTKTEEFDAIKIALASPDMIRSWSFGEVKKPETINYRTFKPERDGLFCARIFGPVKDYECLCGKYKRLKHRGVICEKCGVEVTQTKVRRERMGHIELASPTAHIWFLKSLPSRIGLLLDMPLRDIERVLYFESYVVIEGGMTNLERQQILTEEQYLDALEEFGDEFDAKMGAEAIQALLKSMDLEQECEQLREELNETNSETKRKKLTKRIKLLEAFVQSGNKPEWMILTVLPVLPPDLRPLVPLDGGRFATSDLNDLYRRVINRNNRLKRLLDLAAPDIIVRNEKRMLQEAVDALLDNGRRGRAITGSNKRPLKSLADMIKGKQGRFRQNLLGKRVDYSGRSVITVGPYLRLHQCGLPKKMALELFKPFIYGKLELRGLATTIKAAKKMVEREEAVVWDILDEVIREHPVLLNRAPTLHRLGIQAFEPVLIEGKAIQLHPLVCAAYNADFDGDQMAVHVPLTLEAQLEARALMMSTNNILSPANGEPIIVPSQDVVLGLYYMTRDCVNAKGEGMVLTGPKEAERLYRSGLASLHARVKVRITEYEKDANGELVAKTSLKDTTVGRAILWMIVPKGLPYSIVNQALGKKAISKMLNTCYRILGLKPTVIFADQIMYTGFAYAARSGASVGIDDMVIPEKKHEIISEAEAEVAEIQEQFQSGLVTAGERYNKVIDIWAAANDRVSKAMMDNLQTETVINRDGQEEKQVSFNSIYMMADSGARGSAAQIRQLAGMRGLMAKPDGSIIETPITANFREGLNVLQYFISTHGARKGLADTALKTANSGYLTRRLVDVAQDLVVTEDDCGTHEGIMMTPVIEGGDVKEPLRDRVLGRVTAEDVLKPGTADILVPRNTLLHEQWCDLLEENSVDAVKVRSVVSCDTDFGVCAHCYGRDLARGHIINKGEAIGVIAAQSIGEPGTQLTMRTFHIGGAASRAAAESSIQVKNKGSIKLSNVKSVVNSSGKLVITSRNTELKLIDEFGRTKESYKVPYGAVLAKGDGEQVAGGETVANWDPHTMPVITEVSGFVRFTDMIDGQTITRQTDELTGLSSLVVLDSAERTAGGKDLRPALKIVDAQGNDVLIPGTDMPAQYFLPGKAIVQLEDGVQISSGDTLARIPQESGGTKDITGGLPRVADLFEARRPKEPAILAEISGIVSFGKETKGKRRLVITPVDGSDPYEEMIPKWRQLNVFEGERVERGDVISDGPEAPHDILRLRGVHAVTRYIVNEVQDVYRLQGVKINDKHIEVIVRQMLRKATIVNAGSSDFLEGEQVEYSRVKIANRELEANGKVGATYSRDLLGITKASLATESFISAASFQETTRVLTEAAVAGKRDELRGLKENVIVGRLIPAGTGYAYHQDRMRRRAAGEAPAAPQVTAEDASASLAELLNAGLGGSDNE
E. coli RNA polymerase, sequence (P0A7Z4 whole entry partner): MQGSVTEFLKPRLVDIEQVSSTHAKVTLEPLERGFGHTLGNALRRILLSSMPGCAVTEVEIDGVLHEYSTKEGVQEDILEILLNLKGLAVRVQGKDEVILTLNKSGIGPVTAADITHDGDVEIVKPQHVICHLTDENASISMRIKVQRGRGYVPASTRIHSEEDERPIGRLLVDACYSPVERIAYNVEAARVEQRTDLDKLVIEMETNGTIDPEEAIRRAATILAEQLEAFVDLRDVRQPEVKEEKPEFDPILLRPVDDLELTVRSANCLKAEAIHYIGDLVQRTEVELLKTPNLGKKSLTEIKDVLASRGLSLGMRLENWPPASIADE
E. coli RNA polymerase, sequence (P0A800 whole entry partner): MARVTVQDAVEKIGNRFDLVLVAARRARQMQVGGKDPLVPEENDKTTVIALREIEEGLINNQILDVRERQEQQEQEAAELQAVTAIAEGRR

Row | SMILES | IC50 (E. coli RNA polymerase) | relative potency in in vitro transcription assay (FIG. 20a,b) (E. coli RNA polymerase) | fold more potent cell-based activities than myxopyronin A (S. aureus; MIC values of Table II, B versus A) | MIC (S. aureus) | MIC (E. coli) | MIC [1] | MIC (S. aureus*) | MIC ([2]; read-out: MIC against resistant strains) | MIC ([2]; read-out: MIC against rifampicin resistant strains) | MIC ([3]; read-out: MIC against susceptible strains, Example 9 statement b281) | MIC ([3]; read-out: MIC against susceptible strains, background statement b31)
1 | CCCC/C(C)=C/C=C(\C)C(=O)c1c(O)cc(C(C)CC/C=C/NC(=O)OC)oc1=O (racemic) [(±)-Myxo B, (±)-Myxopyronin B] | 11.6 µM | more potent molecule than A | up to 30 fold | 0.5 µg/mL (≈ 1.16 µM) | > 30 µg/mL | 2 µg/mL (≈ 4.63 µM) | 0.5 µg/mL (≈ 1.16 µM) | – | – | – | –
2 | CO[C@H]1/C=C/O[C@@]2(C)Oc3c(C)c(O)c4c(O)c(c(/C=N/N5CCN(C)CC5)c(O)c4c3C2=O)NC(=O)/C(C)=C\C=C\[C@H](C)[C@H](O)[C@@H](C)[C@@H](O)[C@@H](C)[C@H](OC(C)=O)[C@@H]1C [rifampicin] | – | – | – | – | – | – | – | > 10 µM | > 100 µM | 10 µM (≈ 8.23 µg/mL) | ~0.01 µM (≈ 0.00823 µg/mL)
3 | CCC/C(C)=C/C=C(\C)C(=O)c1c(O)cc(C(C)CC/C=C/NC(=O)OC)oc1=O (racemic) [(±)-Myxo A, (±)-Myxopyronin A] | 47.9 µM | equally potent as the natural product mixtures | – | 15 µg/mL (≈ 35.9 µM) | > 30 µg/mL | 4 to 8 µg/mL (≈ 9.58 to 19.2 µM) | 8 µg/mL (≈ 19.2 µM) | – | – | – | –
